For data set [1], the system named is C6 cells (rat glioma) and BAEC cells (bovine aortic endothelial). Kind of data set: In vitro inhibition of CHP-induced oxidative stress (DCF fluorescence). The data set is classed as cell-based. Conditions: 500 µM CHP, 4, 20, 100 and 500 µM compound, 30 minutes; depending on the concentrations and cell line. How it is done: The method used was essentially the one reported by Rüweler M. et al. ("Inhibition of peroxide-induced radical generation by plant polyphenols in C6 astroglioma cells" (2008) Toxicol in vitro 22, 1377-81), with a few minor modifications.
The cells were seeded in phenol-red free DMEM (Sigma Aldrich) into 96-well plates with 5% FBS and 20 mM HEPES at a density of 40,000 cells/well. After 48 hours, the medium was substituted by HBSS (Hanks' Balanced Salt Solution, Sigma) containing 10 µM of dihydro-2',7'-dichlorofluorescein diacetate (H2DCF-DA, Sigma Aldrich) and incubated in darkness for 30 minutes at 37 °C, in order to load the cells with fluorescent dye. H2DCF-DA was hydrolyzed enzymatically by the intracellular esterases to form non-fluorescent H2DCF, which was then rapidly oxidized to form 2',7'-dichlorofluorescein (DCF) being highly fluorescent in the presence of reactive species (RS). The intensity of DCF fluorescence is directly proportional to the amount of RS formed.
After carrying out two washes, the cells were exposed to 500 µM of CHP and various concentrations (4, 20, 100 and 500 µM) of the compounds of the invention for 30 minutes at 37 °C. Fluorescence was then measured, after cell washing, by a microplate reader at an excitation wavelength of 485 nm and an emission wavelength of 535 nm.
Six wells per plate per concentration of test composition (compound + CHP) and per control (HBSS without CHP) were measured and 12 wells were used as reference for CHP-induced stress. In addition, each 96-well plate contained 6 wells that received the highest concentration of the tested compounds without CHP, to investigate whether the compounds of the invention alone were able to induce cellular radical formation.
When using this assay, it should be borne in mind that DCF fluorescence is a generalized indicator of oxidative stress rather than of any particular reactive species, i.e. it is not a direct assay for H2O2 or other reactive species (Halliwell B, Whiteman M. (2004) "Measuring reactive species and oxidative damage in vivo and in cell culture: how should you do it and what do the results mean?" Br. J. Pharmacol. 142 231-255). Therefore, when an increase in DCF fluorescence induced by exposure of cells to CHP was measured, as was carried out in these assays, it was not possible to deduce which reactive species was responsible. Inhibition of CHP-induced fluorescence was evaluated by means of different concentrations of the compounds of the invention and comparative compounds such as Trolox and edaravone.

Data set [2] can be described thus: TEAC method (Trolox Equivalent Antioxidant Capacity Assay). The class given is biochemical. Conditions: ratio of gradient to gradient of Trolox; 650 nm, 37 °C, about 90 minutes. The source says:
This assay is used to measure the total antioxidant activity of pure substances, biological fluids and plant compounds and is based on the reaction of antioxidants with the cation radical ABTS·^+ (2,2'-azinobis(3-ethylbenzothiazolin-6-sulphonate)). This cation radical is metastable and has to be generated just before the experiment by reacting ABTS with hydrogen peroxide in the presence of HRP. This radical can be reduced, with consequent loss of absorbance, by an antioxidant whose scavenging capacity can be measured spectrophotometrically at 650 nm. The test is carried out at 37 °C and the results are obtained from a comparison with Trolox (a synthetic antioxidant and hydrophilic analogue of vitamin E).
The ABTS solution S1 was prepared as follows: • 20 mg of ABTS were added to 50 mM of citric acid buffer (40 ml) at pH=4.5 and to the resulting solution there was added an aqueous solution of HRP (4.4 mg, 400 µl) and an aqueous solution of H2O2 (10 µl of a 30% solution diluted with 16.3 ml of water).
For each of the compounds (1)-(11), as synthesized above, there was prepared a 600 µM solution in water, methanol or DMSO according to its solubility, as well as a Trolox solution as reference.
Each solution was diluted to produce 6 solutions each at a concentration between 25 µM and 300 µM. From each of the diluted and divided solutions, there were withdrawn 20 µl to which 200 µl of solution S1 were then added.
The decrease in absorbance of each solution thus obtained was monitored at 650 nm until a stable value was reached (about 90 minutes).
For each set of 6 solutions and for the reference trolox solution, the absorption was given in graph form as a function of the amount of compound (nmol) in the solution. The gradient of the straight line obtained by linear interpolation was determined according to the least squares method. The TEAC value of each compound of the invention is given in the table below and is expressed as the ratio between the gradient of the resulting straight line and the gradient of the reference (trolox) straight line.

The test system of data set [3] is female CD-1 mice. The data set is described as follows: Acute toxicity study, intraperitoneal, single dose. Particulars: in vivo. On the procedure: This study was carried out with the purpose of investigating the toxicity of a single dose of the listed compounds administered to ICR (CD-1) female mice. According to the current OECD guideline no.
The mice used were all female and were treated by intraperitoneal injection administration. The animals were observed individually and regularly for the first 4 hours and within 24 hours after administration, and then twice a day for the whole observation period. As soon as the animals were stabilized, observations at the weekend were undertaken once only during the day.
The evaluated parameters included the survival, body weight development, variations in skin and fur, changes in ocular, conjunctival and buccal mucous membranes, changes in activities of the respiratory, circulatory, autonomous and central nervous systems, changes in somatomotor activity and in behaviour.
Any appearance of tremors, convulsions, salivation, diarrhea, lethargy, drowsiness and coma were attentively and regularly monitored. At the end of the observation period, a post-mortem was carried out on all the animals.

For `CC1=NN(c2ccccc2)C(=O)C1` [edaravone, reference compound], in data set [1], the “Inhibition of CHP-induced fluorescence” value is given as 10-50%. The TEAC in data set [2] worked out at 0.9.
Take `O=C1CCC(=O)C1C1COCCN1O` (stereo not shown) [(7), 2-(4-hydroxymorpholin-3-yl)-cyclopentane-1,3-dione]: the TEAC in data set [2] is 1.5.
For `O=c1oc2ccccc2c(O)c1C1COCCN1O` (stereo not shown) [(10), 4-hydroxy-3-(4-hydroxymorpholin-3-yl)-2H-chromen-2-one], the toxic effect entry in data set [3] (Example 23) is given as “no toxic effect”. For the same compound, in data set [2], the TEAC turned out to be 1.4.
As to `O=C1c2ccccc2C(=O)C1C1COCCN1O` (stereo not shown) [(8), 2-(4-hydroxymorpholin-3-yl)-2H-indene-1,3-dione], the toxic effect entry in data set [3] (Example 23) is on record as “no toxic effect”. For the same compound, the “Inhibition of CHP-induced fluorescence” value in data set [1] is recorded as “effective”. Moreover, the TEAC in data set [2] was 1.5.
As for `O=C1CC(c2ccccc2)CC(=O)C1C1COCCN1O` (stereo not shown) [(5), 2-(4-hydroxymorpholin-3-yl)-5-phenylcyclohexane-1,3-dione], in data set [3] (mouse), the toxic effect result was “no toxic effect”. The TEAC in data set [2] is recorded as 1.2.
For `CC1(C)CC(=O)C(C2COCCN2O)C(=O)C1` (stereo not shown) [(4), 2-(4-hydroxymorpholin-3-yl)-5,5-dimethylcyclohexane-1,3-dione], in data set [3] (Example 23), the toxic effect result was “no toxic effect”. In addition, the “Inhibition of CHP-induced fluorescence” value in data set [1] is listed as “effective”. Further, the TEAC in data set [2] was 1.2.
As to `CC1(C)CC(=O)C(C2CCCCN2O)C(=O)C1` (stereo not shown) [(3), 2-(1-hydroxypiperidin-2-yl)-5,5-dimethylcyclohexane-1,3-dione], in data set [2], the TEAC was 1.0.
In the case of `CC1=NN(c2ccccc2)C(=O)C1C1COCCN1O` (stereo not shown) [(11), 4-(4-hydroxymorpholin-3-yl)-3-methyl-1-phenyl-1H-pyrazol-5(4H)-one], the “Inhibition of CHP-induced fluorescence” value in data set [1] was “effective”. The TEAC in data set [2] came to 2.0.

Values taken from patent EP2345639A1, “Cyclic hydroxylamine derivatives, their preparation and use as antioxidants” (ABIOGEN PHARMA S.p.A., priority 2009, dated 2011).
